Data reported in BindingDB's records for doi:10.1021/jm011128+ (2002).
pIC50: −log10 of the molar value.

Tests used:
[1] = target: Thymidine kinase (Human herpesvirus 1); assay: Inhibitory activity against HSV-1 Thymidine kinase in OST-TK-/HSV-1 TK+ cell line in combination with gancicclovir
[2] = target: Thymidine kinase (Human herpesvirus 1); assay: Inhibitory activity against HSV-1 Thymidine kinase in OST-TK-/HSV-1 TK+ cell line in combination with BVAraU
[3] = target: Thymidine kinase 2, mitochondrial (Homo sapiens) (UniProt O00142); assay: Inhibitory effect against phosphorylation of [methyl-3H]dThd by Thymidine Kinase 2 (TK-2)
[4] = target: Thymidine kinase (Human herpesvirus 1); assay: Compound was evaluated for inhibitory effect against phosphorylation of [methyl-3H]dThd by HSV-1 Thymidine kinase

Thymidine kinase 2, mitochondrial (Homo sapiens), sequence (O00142 whole entry, looked up): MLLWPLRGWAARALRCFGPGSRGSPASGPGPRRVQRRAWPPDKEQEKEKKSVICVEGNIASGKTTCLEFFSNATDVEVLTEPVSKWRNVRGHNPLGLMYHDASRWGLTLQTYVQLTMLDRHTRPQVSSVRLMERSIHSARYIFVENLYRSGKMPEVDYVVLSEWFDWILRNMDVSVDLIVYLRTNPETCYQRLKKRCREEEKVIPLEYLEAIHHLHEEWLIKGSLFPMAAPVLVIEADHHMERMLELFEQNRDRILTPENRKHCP

Row | pIC50 [3] | also measured | Structure (SMILES)
1 | – | pIC50 [1]: 8.70; pIC50 [2]: 8.10 | Cc1cn(Cc2ccccc2COC(c2ccccc2)(c2ccccc2)c2ccccc2)c(=O)[nH]c1=O [5-Methyl-1-(2-trityloxymethyl-benzyl)-1H-pyrimidine-2,4-dione]
2 | 5.34 | – | Cc1cn(C/C=C\COC(=O)C(c2ccccc2)c2ccccc2)c(=O)[nH]c1=O [Diphenyl-acetic acid 4-(5-methyl-2,4-dioxo-3,4-dihydro-2H-pyrimidin-1-yl)-but-2-enyl ester]
3 | 4.66 | – | Cc1cn(C/C=C\COCc2ccccc2)c(=O)[nH]c1=O [1-(4-Benzyloxy-but-2-enyl)-5-methyl-1H-pyrimidine-2,4-dione]
4 | – | pIC50 [4]: 5.51 | Cc1cn(CC#CCOC(c2ccccc2)(c2ccccc2)c2ccccc2)c(=O)[nH]c1=O [5-Methyl-1-(4-trityloxy-but-2-ynyl)-1H-pyrimidine-2,4-dione]
5 | – | pIC50 [4]: 4.85 | COc1ccc(C(OCC2OC(n3cc(C)c(=O)[nH]c3=O)CC2O)(c2ccccc2)c2ccc(OC)cc2)cc1 (stereo not drawn) [1-{5-[Bis-(4-methoxy-phenyl)-phenyl-methoxymethyl]-4-hydroxy-tetrahydro-furan-2-yl}-5-methyl-1H-pyrimidine-2,4-dione]
6 | 4.40 | – | Cc1cn(C/C=C\COC(=O)C(C)(C)C)c(=O)[nH]c1=O [2,2-Dimethyl-propionic acid 4-(5-methyl-2,4-dioxo-3,4-dihydro-2H-pyrimidin-1-yl)-but-2-enyl ester]
7 | 4.52 | – | Cc1cn(C/C=C\COC(=O)c2ccccc2)c(=O)[nH]c1=O [Benzoic acid 4-(5-methyl-2,4-dioxo-3,4-dihydro-2H-pyrimidin-1-yl)-but-2-enyl ester]
